Laboratory results published in patent US20200010479A1, “INHIBITORS OF MICROBIAL BETA-GLUCURONIDASE ENZYMES AND USES THEREOF” (THE UNIVERSITY OF NORTH CAROLINA AT CHAPEL HILL, priority 2017, published 2020).
Entries after “also recorded” stand apart in the source; their conditions may differ.

Columns and labels:
[1] = target: T1, Mini-Loop 1 (mL1) GUS from Bacteroides fragilis (Bacteroides fragilis, UniProt Q5LIC7); format: biochemical; conditions: purified mL1 enzyme, in vitro
T1 construct: made in house

[2] = tested on: murine intestinal epithelium; experiment: Time-course of gut damage after a single treatment in FVB mice; format: in vivo, female FVB mice
Experimental: It has been previously reported that irinotecan induces apoptosis and reduces the number of mitotic structures in the rat intestinal epithelium (Takasuna 1996). To assess whether Inh9 impacts cell proliferation in the murine intestinal epithelium, we undertook two time-course studies. Four groups of age-, weight- and litter-matched female FVB mice were treated with a single treatment of vehicle, Inh9 (1 mg/kg p.o.), irinotecan (50 mg/kg i.p.) or irinotecan and Inh9. One set of animals were euthanized after 24 hours, and a second set after 120 hours. To assess overall effects on the animals, changes in body weight, spleen mass and hematocrit were measured. In the GI tract, levels of apoptotic cells and proliferative cells were measured and epithelial samples were examined by H&E staining.
Thus, at five days, Inh9 appears to protect this measure of animal health. […] As such, the protection afforded at 24 hours by Inh9 is sufficient to improve subsequent gut epithelial outcomes in mice several days after administration.

C3-Tag mammary tumors = experiment: C3-Tag genetically engineered mouse model (GEMM) of triple-negative breast cancer
[3] = tested on: gut microbial GUS proteins; experiment: SN-38-G processing by in fimo samples (enzyme mixtures from intestinal contents); format: biochemical, naïve FVB mice
Source text: To examine the activity of a more relevant sample of gut microbial GUS proteins, intestinal contents from naïve FVB mice in SPF conditions were obtained. […] As used herein, the ex vivo intestinal samples examined scientifically are to be termed “in fimo” from “fimus”, used by […] and in formal Latin to mean “excrement”. […] FIGS. 14A and 14B). […] FIGS. 14A and 14B).

SUM149 cells = experiment: SUM149 triple negative breast cancer xenograft in athymic nude mice
C. perfringens GUS = C. perfringens GUS (Clostridium perfringens, UniProt Q8XP19); format: biochemical
gut microbiota [4] = experiment: Gut microbiota composition in C3Tag GEMM animals; format: in vivo, C3Tag GEMM mice; conditions: mice with intact immune system
Source text: Finally, we examined the effects of irinotecan and GUS inhibitor on the composition of the gut microbiota in […] triple-negative breast cancer GEMM animals. […] While the vehicle and Inh9 treatment groups appeared similar by PCoA1 analysis, both the irinotecan and IRI+Inh9 groups were similar to each other and distinct from the non-irinotecan mice (FIG. 22C). However, unlike the xenograft mice, irinotecan induces much smaller changes in the composition of the gut microbiota in these GEMM animals. […] These changes were not as dramatic as those observed with the athymic Sum149 xenograft mice presented above. […] In these GEMM animals, though, no change in Enterobacteriaceae or other Gammaproteobacteria families was observed; thus, the taxa that drive the increases in Proteobacteria are not known in these immune-competent mice.

E. coli GUS [5] = target: T2, E. coli GUS (Escherichia coli, UniProt P05804); experiment: In vitro EcGUS inhibition, cleavage of PNPG by purified E. coli GUS; format: biochemical; conditions: PNPG substrate, 37° C., 2 hours
Experimental: To assess GUS inhibition, cleavage of p-nitrophenyl-β-D-glucuronide (PNPG) by purified E. coli GUS in the presence of inhibitor was measured. The reaction was performed in 96-well clear-bottom plates at a volume of 50 μL. Each reaction contained 5 μL of 100 nM E. coli GUS, 5 μL of inhibitor at various concentrations, 10 μL of 250 mM HEPES and 250 mM NaCl assay buffer, and 30 μL of 1.5 mM PNPG. The reaction was initiated by addition of PNPG and incubated at 37° C. for 2 hours. End point absorbance values at 410 nm were measured using a PHERAstar Plus microplate reader. The resulting data were fit with a four-parameter logistic log function in SigmaPlot 13.0 to determine IC50 values. IC50 was defined as the concentration of inhibitor that yields a 50% reduction in product formation at equilibrium.

E. eligens GUS = experiment: SN-38-G processing by purified GUS enzymes, with inhibitors; format: biochemical, Eubacterium eligens; conditions: purified L1 enzyme, in vitro
E. coli GUS [6] = target: T2, E. coli GUS; format: biochemical; conditions: purified L1 enzyme, in vitro
[7] = tested on: panel of purified GUS enzymes present in the human gut microbiota; experiment: SN-38-G processing by panel of purified GUS enzymes, with inhibitors; format: biochemical; conditions: comparison of inhibitors over the panel
[8] = tested on: Loop 2 (L2) enzyme from Bacteroides uniformis; experiment: SN-38-G processing by purified GUS enzymes, with inhibitors; format: biochemical; conditions: in vitro
gut microbiota [9] = experiment: 16S rRNA metataxonomic analysis of luminal contents, athymic Sum149 xenograft mice; format: in vivo
Experimental: A metataxonomic analysis was performed of the luminal contents of athymic mice bearing Sum149 triple-negative breast cancer xenograft tumors by sequencing the V3-V4 region of the bacterial 16s rRNA gene. […] Gut microbial diversity is associated with animal and human health, while reduced diversity is associated with disease in both model organisms and humans (REFs). Thus, Inh9 blunts the negative effects of irinotecan on gut microbial diversity in athymic tumor xenograft mice, and is capable of increases species richness in these animals.
At the phylum level, the lumenal contents of vehicle-treated mice contained 50% Bacteroidetes, 42% Firmicutes, and 4% Proteobacteria (FIG. 22B). […] Thus, in immune-deficient mice, Inh9 markedly protects gut microbial composition in athymic mice, increasing diversity and reducing irinotecan-induced increases in Proteobacteria.

S. agalactiae GUS = target: T3, S. agalactiae GUS (Streptococcus agalactiae serotype V, UniProt Q8E0N2); format: biochemical; conditions: purified L1 enzyme, in vitro
T3 construct: made in house

gut microbial enzymes = experiment: SN-38-G reactivation in fimo samples after treatment of FVB mice; format: in vivo
Experimental: The FVB mice were treated with irinotecan, the Inh9, or both irinotecan and Inh9, and it was determined how these treatments affected SN-38-G reactivation in fimo samples collected after 24 hours. […] A similar study was conducted in which samples were collected at 120 hours; at this five-day timepoint, no difference was found between the four treatment groups (data not shown).

[10] = Inh9 co-treatment with irinotecan, 24 hours
[11] = irinotecan plus Inh9 vs irinotecan alone, 120 hours
[12] = irinotecan and Inh9 vs irinotecan alone

T2 sequence (P05804 whole entry): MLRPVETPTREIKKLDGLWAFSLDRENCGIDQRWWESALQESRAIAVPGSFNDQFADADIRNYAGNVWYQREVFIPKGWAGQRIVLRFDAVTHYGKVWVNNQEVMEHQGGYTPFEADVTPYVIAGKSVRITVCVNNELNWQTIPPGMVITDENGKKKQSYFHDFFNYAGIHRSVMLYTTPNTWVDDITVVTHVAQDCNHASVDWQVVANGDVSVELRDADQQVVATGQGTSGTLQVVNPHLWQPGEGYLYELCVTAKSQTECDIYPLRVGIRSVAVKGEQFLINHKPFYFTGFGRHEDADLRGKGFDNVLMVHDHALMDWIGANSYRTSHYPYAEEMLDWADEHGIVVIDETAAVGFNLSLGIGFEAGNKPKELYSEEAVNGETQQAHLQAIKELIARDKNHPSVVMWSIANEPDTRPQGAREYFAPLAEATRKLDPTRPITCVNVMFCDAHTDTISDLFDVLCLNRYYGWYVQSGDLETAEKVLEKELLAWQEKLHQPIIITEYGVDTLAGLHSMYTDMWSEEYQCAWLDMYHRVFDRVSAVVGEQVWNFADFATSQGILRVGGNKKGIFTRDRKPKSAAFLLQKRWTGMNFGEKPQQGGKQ
T1 sequence (Q5LIC7 whole entry): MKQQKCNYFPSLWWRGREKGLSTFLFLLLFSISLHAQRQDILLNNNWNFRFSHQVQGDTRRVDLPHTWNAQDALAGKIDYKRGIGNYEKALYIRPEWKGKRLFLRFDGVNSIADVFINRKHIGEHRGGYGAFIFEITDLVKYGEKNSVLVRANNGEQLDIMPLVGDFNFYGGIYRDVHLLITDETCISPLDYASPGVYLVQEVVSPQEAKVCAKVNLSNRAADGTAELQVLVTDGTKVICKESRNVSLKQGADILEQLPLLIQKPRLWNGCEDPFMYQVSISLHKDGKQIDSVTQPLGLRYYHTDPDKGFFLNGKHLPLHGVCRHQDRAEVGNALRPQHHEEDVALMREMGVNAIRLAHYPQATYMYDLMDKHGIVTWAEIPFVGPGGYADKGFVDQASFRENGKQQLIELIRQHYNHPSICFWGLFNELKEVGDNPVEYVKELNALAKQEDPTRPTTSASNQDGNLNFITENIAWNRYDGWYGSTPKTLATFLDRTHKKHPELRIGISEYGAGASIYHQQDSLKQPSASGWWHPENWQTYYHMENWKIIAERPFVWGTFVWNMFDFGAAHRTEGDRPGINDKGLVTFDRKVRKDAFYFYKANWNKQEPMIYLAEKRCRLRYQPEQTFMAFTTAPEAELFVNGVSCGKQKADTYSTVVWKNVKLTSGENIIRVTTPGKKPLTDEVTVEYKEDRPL
Sequence of C. perfringens GUS (Q8XP19 whole entry, looked up): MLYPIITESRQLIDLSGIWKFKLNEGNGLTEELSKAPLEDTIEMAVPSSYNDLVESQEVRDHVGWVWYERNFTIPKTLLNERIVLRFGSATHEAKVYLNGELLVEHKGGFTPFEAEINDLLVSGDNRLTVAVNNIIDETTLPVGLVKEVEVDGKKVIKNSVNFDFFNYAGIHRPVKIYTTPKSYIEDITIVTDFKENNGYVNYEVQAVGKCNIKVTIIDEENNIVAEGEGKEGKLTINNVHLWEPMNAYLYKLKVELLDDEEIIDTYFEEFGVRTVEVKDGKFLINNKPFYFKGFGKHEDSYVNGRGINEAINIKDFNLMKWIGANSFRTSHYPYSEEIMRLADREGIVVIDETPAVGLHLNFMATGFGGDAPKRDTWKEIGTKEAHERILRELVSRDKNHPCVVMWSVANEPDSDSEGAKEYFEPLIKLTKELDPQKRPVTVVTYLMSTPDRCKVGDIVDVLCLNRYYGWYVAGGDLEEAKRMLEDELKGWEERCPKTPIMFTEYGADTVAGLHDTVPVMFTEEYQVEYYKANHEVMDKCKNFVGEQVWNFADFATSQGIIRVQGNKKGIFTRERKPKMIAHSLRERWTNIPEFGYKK
T3 sequence (Q8E0N2 whole entry): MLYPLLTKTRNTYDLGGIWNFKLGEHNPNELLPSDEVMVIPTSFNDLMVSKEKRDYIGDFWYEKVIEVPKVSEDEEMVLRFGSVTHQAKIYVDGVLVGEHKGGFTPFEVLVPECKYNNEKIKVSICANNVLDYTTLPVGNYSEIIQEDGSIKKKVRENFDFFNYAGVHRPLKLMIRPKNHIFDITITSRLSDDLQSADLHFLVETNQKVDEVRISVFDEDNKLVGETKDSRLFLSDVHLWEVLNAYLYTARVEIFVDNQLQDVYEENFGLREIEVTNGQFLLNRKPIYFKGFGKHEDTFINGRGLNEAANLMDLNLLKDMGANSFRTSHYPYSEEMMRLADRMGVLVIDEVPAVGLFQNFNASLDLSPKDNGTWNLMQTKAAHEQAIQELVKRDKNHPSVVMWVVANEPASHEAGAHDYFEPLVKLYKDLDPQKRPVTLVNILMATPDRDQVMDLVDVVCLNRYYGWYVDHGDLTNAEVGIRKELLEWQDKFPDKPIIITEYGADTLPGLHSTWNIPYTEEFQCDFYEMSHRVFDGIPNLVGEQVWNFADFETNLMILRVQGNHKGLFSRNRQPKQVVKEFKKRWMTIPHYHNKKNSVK

Question: Which results are given for C1CCc2c(c(N3CCOCC3)nc3sc4c(N5CCNCC5)nnnc4c23)C1 [Inh9]?
Answer: inhibition of SN-38-G processing [1]: did not inhibit; acute toxicity after single IRI injection [2, 10]: modestly reduces; apoptotic cells per crypt [2, 10]: modest protection; apoptotic cells per crypt ([2]; Inh9 co-treatment with irinotecan, 120 hours): modest protection; numbers of proliferative cells in the GI tract (BrdU) ([2]; between treatment groups, 24 hours): no change; number of proliferative cells per crypt in ileum, proximal colon and distal colon ([2]; co-treatment of irinotecan with Inh9, 120 hours): significantly increased; body weight or spleen mass [2, 11]: no changes; hematocrit [2, 11]: significant increase; colon tissue, H&E staining (C3-Tag mammary tumors; IRI+Inh9): maintained a properly assembled colonic glandular structure; day to which the study could continue (C3-Tag mammary tumors; IRI+Inh9): 49 days; primary tumor as share of body weight (C3-Tag mammary tumors; IRI+Inh9): below 1%; primary tumor mass upon sacrifice (C3-Tag mammary tumors; IRI+Inh9): less than 100 mg; time some animals remained diarrhea-free (C3-Tag mammary tumors; IRI+Inh9): 42 days; body weight over the course of the study (C3-Tag mammary tumors; IRI+Inh9, after the first 21 days): rebounded and recovered their lost weight; survival longer than IRI (Kaplan-Meier) (C3-Tag mammary tumors; IRI+Inh9 vs IRI): 43%; number of doses of irinotecan received (C3-Tag mammary tumors; IRI+Inh9 vs IRI alone): significantly higher number of IRI doses; also recorded: more doses of irinotecan; survival longer than Veh and Inh9 (Kaplan-Meier) (C3-Tag mammary tumors; IRI+Inh9 vs Veh and Inh9): 29%; diarrhea (C3-Tag mammary tumors; IRI+Inh9 vs irinotecan alone): significantly reduced diarrhea; diarrhea (C3-Tag mammary tumors; Inh9 alone): did not develop diarrhea; time followed until tumor size necessitated euthanasia (C3-Tag mammary tumors; Inh9 alone (as vehicle)): 70 to 80 days; extension of overall survival of irinotecan-treated mice (C3-Tag mammary tumors; Inh9 co-treatment): 14 days; number of tumors observed in the animals (C3-Tag mammary tumors; between treatment groups): did not differ; tumor volumes measured during the study (C3-Tag mammary tumors; irinotecan plus GUS inhibition): significantly smaller tumors; body weight over the course of the study (C3-Tag mammary tumors; single agent): gained weight; colon tissue, H&E staining (C3-Tag mammary tumors; single agent): healthy colonic histology; primary tumor as share of body weight (C3-Tag mammary tumors; single agent): more than 5%; primary tumor mass upon sacrifice (C3-Tag mammary tumors; single agent): 1.5 g; tumor volumes measured during the study (C3-Tag mammary tumors; single agent): reduced tumor volumes; tumor number and relative mass (FIG. 9) (C3-Tag mammary tumors; with Inh9): significant reduction; SN-38-G reactivation by cecal contents ([3]; Inh9 at 50 and 100 μM): dose-dependent; also recorded: significantly reduce; reducing SN-38-G processing in fimo ([3]; cecum, proximal and distal colon samples, comparison of inhibitors): superior to Inh1; post-sacrifice colon histological examination (SUM149 cells; Inh9 with irinotecan): marked protection; diarrhea (SUM149 cells; [12]): significantly less diarrhea; irinotecan-induced weight loss / body weight (SUM149 cells; [12]): significant improvement; also recorded: significantly protected; survival (SUM149 cells; [12]): slightly improved overall survival; also recorded: trended toward living longer; terminal tumor masses (SUM149 cells; irinotecan-plus-Inh9): significantly reduced; tumor volumes (SUM149 cells; irinotecan-plus-Inh9 compared to vehicle and Inh9 cohorts): significantly reduced; inhibition of SN-38-G processing (apparent kcat) (C. perfringens GUS): efficiently reduced; composition of the gut microbiota (gut microbiota [4]): does not change; IC50 (E. coli GUS [5]): 380 nM; inhibition of SN-38-G processing (apparent kcat) (E. eligens GUS): efficiently reduced; inhibition of SN-38-G processing (apparent kcat) (E. coli GUS [6]): efficiently reduced; inhibiting GUS-mediated reactivation of SN-38-G in vitro [7]: superior to Inh1; inhibition of SN-38-G processing [8]: did not inhibit; reduction of the levels of Proteobacteria compared to vehicle (gut microbiota [9]; GUS inhibitor alone): more than 10 fold; species diversity, Chao1 richness (gut microbiota [9]; IRI+Inh9): maintained species diversity; Bacteroidetes in lumenal contents, phylum level (gut microbiota [9]; irinotecan and Inh9): 42%; Firmicutes in lumenal contents, phylum level (gut microbiota [9]; irinotecan and Inh9): 43%; Proteobacteria in lumenal contents, phylum level (gut microbiota [9]; irinotecan and Inh9): 13%; Proteobacteria in lumenal contents, phylum level (gut microbiota [9]; single agent): 0.3%; species diversity, Chao1 richness (gut microbiota [9]; single agent): uniformly maximized species richness; inhibition of SN-38-G processing (apparent kcat) (S. agalactiae GUS): efficiently reduced; level of SN-38-G reactivation by in fimo samples (gut microbial enzymes; Inh9 plus irinotecan compared to irinotecan alone, 24 hours): significantly reduced; effects on SN-38-G reactivation by in fimo samples (gut microbial enzymes; samples collected at 120 hours): no longer detected; SN-38-G processing activity in the mouse cecum (in fimo samples) (gut microbial enzymes; single agent, samples collected after 24 hours): did not alter
